{
  "source": "patent US20040097534A1",
  "about": "“Composition for the protection and regeneration of nerve cells containing berberine derivatives” (EUGENBIO INC., priority 2001, published 2004)",
  "test_system": "sciatic nerves",
  "assay": "Regeneration of crushed sciatic nerves (axons, myelin sheaths)",
  "format": "in vivo, Sprague-Dawley white rat",
  "settings": "for number of axons longer than 300 μm / number of myelin sheaths longer than 200 μm: berberine intraperitoneal",
  "procedure": "After a Sprague-Dawley white rat (male, weighing about 200 g) was anesthetized with pentobarbital (50 mg/kg), the left sciatic nerve was exposed at the sciatic notch. Subsequently, all nerve fibers except the artery in the sciatic nerve were cut, or both sides of nerve fibers were tied using #9 blood vessel suture, and then the center of the nerve fibers were cut using iridectomy scissors. In a crush model, nerve fibers were thoroughly crushed twice using a crush clip. After nerve fibers were injured, proximal stumps and distal stumps were obtained over various time intervals (6 hours, 1 day, 3 day, 7 day, 14 day, 21 day and 28 day), respectively, before testing. For comparison, the right sciatic nerve was used as a control group.\nAfter a white rat was anesthetized, its sciatic nerves were exposed and crushed. PBS or berberine was intraperitoneally injected into the rat. 1 week, 2 weeks and 4 weeks after suturing, nerve regeneration was observed. The rat was perfused and then sciatic nerves were obtained from the distal stump. After the obtained sciatic nerves were cryosected to a thickness of 7-10 μm, cryosected sciatic nerves were double-stained using beta-tubulin isotypeIII (cy3, red), which is an axon marker, and MBP ([…], cy2, green) antibody, which is a differentiation (myelin) marker of Schwann cells. It was observed under a confocal microscope that axons (see, Table 11) were longer than 300 μm and myelin sheaths (see, Table 12) were longer than 200 μm (see, FIGS. 13 to 15, 19a and 19b).",
  "data": [
    {"smiles": "COc1ccc2cc3[n+](cc2c1OC)CCc1cc2c(cc1-3)OCO2", "note": "[Berberine, 7,8,13,13a-tetradihydro-9,10-dimethoxy-2,3-(methylenedioxy) berbinium]", "values": [
      {"measurement": "number of myelin sheaths longer than 200 μm, increase", "setting": "1 week", "result": "doubled"},
      {"measurement": "effect on axonal growth and the regeneration of myelin sheaths", "setting": "1 week after operation", "result": "not great"},
      {"measurement": "number of axons longer than 300 μm", "setting": "1 week, PBS = 14.5", "result": 24.6},
      {"measurement": "number of myelin sheaths longer than 200 μm", "setting": "1 week, PBS = 16.5", "result": 35},
      {"measurement": "number of axons longer than 300 μm", "setting": "2 weeks, PBS = 20.5", "result": 32.3},
      {"measurement": "number of myelin sheaths longer than 200 μm", "setting": "2 weeks, PBS = 43", "result": 88.6},
      {"measurement": "number of axons (neurites) longer than 300 μm, increase", "setting": "4 weeks", "result": "doubled"},
      {"measurement": "number of myelin sheaths longer than 200 μm, increase", "setting": "4 weeks", "result": 3, "unit": "times"}
    ]}
  ]
}
